Measured values: patent EP3352763B1 (priority 2015, dated 2017)

Tests used:
[1] = tested on: Influenzavirus A/Regensburg/D6/2009/H1N1; assay: Screening of antiviral effect of test substances (Fig. 1); format: cell-based; settings: for antivirale Aktivität: Fig. 1, result in words
Hantaviren = format: cell-based
[2] = tested on: A/Mississippi/3/2001/H1N1; format: cell-based, Influenzaviren; settings: TC50/EC50, A/Mississippi/3/2001/H1N1
[3] = tested on: Influenza-Viren vom Stamm A/Regensburg/D6/2009/H1N1; format: cell-based
A/Victoria/3/75/H3N2 = format: cell-based, Influenzaviren
[4] = tested on: A/Regensburg/D6/2009/H1N1; format: cell-based, Influenzaviren; settings: TC50/EC50, A/Regensburg/D6/2009/H1N1
in vitro [5] = settings: monkey, vero cells
in vitro [6] = settings: dog, mdck

Compound	antivirale Aktivität [1]	Wirkung gegen Hantaviren (Hantaviren)	Reduktion der Viruslast ([1]; Fig. 1, screening of substances) [%]	Selektivitätsindex (S.I.) [2]	antivirale Wirkung (Reduktion der Viruslast) [3] [%]	antiviraler Effekt [3]	Reduktion der Viruslast ([3]; pre-incubation of the viruses with Tilirosid)	TC50 (A549-Zellen) [µM]	Selektivitätsindex (S.I.) (A/Victoria/3/75/H3N2)	Selektivitätsindex (S.I.) [4]	CC50 (in vitro [5]) [µM]	CC50 (in vitro [6]) [µM]
O=C(O)c1cc(O)c(O)c(O)c1 [Gallussäure, reference compound]	antivirale Aktivität	–	–	–	–	–	–	–	–	–	–	–
O=C(/C=C/c1ccc(O)cc1)OC[C@H]1O[C@@H](Oc2c(-c3ccc(O)cc3)oc3cc(O)cc(O)c3c2=O)[C@H](O)[C@@H](O)[C@@H]1O [Tilirosid, Kaempferol-3-(6"-trans-p-coumaroyl)glucosid]	höchste antivirale Aktivität	nicht gegen Hantaviren wirkt	> 90	2.906	> 90	keinen antiviralen Effekt	keiner Reduktion der Viruslast	1.862	134	433	126	932
